What was measured:
recombinant hGrx1-roGFP2 = target: T1, recombinant hGrx1-roGFP2 (Homo sapiens, UniProt P35754); assay: In vitro interaction with recombinant hGrx1-roGFP2 probe; format: biochemical; conditions: at the concentrations used in this study
T1 construct: made in house
Procedure: The sensor hGrx1–roGFP2 (human glutaredoxin 1-reduction–oxidation sensitive green fluorescent protein 2) was recently transiently expressed in 3D7 P. falciparum parasites by using the pARL1a(+) expression vector. Heterologous overexpression of hGrx1–roGFP2 for the evaluation of the in vitro interactions of ML304 and anti-malarial drugs with the recombinant redox probe was performed according to [35].
ML304 was used at concentrations of 10 nM to 1 mM in degassed standard reaction buffer (100 mM potassium phosphate, 1 mM EDTA, pH 7.0). […] The characterization of the in vitro interaction of hGrx1–roGFP2 with ML304 was performed according to Schuh et al..

P. falciparum 3D7 [1] = assay: [3H]-hypoxanthine incorporation assay on asexual blood stages; format: cell-based, Plasmodium falciparum; conditions: 72 h [3H]-hypoxanthine incorporation assay
[2] = test system: P. falciparum 3D7[hGrx1-roGFP2] cytosolic glutathione-dependent redox potential; assay: Cytosolic glutathione redox sensor hGrx1-roGFP2, confocal live cell imaging (CLSM); format: cell-based, Plasmodium falciparum; conditions: for Oxidation of the hGrx1-roGFP2 sensor: comparable to 1 mM DIA
Procedure: A Leica confocal system TCS SP5 inverted microscope equipped with the objective HCX PL APO 63.0 × 1.30 GLYC 37 °C UV connected to a 37 °C temperature chamber was used. The argon laser power was set to 20%; scanning was performed at 400 Hz frequency and at a 512 × 512 pixel resolution. The smart gain and smart offset were 950 V and −0.9%, respectively. With a sequential scan, the hGrx1–roGFP2 probe was excited at 405 nm and at 488 nm and emission was detected at 500–550 nm. Laser intensity was adjusted to match the full dynamic range of the probe to the dynamic range of the detector (405 nm: 10%, 488 nm: 4%). […] The Leica LAS AF Lite software for fluorescence analysis was used. The 405/488 nm ratio was calculated. The graphs were plotted using the GraphPad Prism 5 software (San Diego, CA, USA). For live cell imaging, only parasites showing fluorescent signals at both 405 and 488 nm excitation and an intact host cell were chosen.
The effect of ML304 and the anti-malarial drugs ATS and CQ as reference drugs on P. falciparum were investigated in 4 h and 24 h incubation experiments. […] For 4 h experiments, trophozoite stage parasites (26–30 h) of 3D7^[hGrx1–roGFP2] and NF54^[hGrx1–roGFP2] (6–8% parasitaemia) were magnetically enriched (Miltenyi Biotec, Germany), counted by using a Neubauer hemocytometer (Brand GmbH, Germany), and returned to cell culture (at 2.0 × 10^4 trophozoites μL^−1) for at least 1 h to recover. 1.0 × 10^6 cells in 100 μL cell culture medium were placed into LoBind tubes (Eppendorf, Hamburg, Germany) for 4 h incubation experiments. The parasites were treated with ML304 at 1 μM, 50 μM, and 100 μM, or with the anti-malarial drugs ATS and CQ at approximately 50 × EC50 for 4 h under cell culture conditions. Subsequently, free thiol groups were blocked with 2 mM N-ethylmaleimide (NEM) for 15 min at 37 °C. For 24 h experiments, a 5 mL culture (5% haematocrit, 6–8% parasitaemia) of ring stage parasites (6–10 h post invasion) was treated with ML304 at 1 μM, 5 μM, and 10 μΜ, or the anti-malarial drugs ATS and CQ at approximately 4 × EC50. Prior to enrichment, cysteines were blocked with 2 mM NEM for 15 min at 37 °C. For 4 h and 24 h experiments, cells were washed after incubation and resuspended in Ringer’s solution (122.5 mM NaCl, 5.4 mM KCl, 1.2 mM CaCl2, 0.8 mM MgCl2, 11 mM D-glucose, 25 mM HEPES, 1 mM NaH2PO4, pH 7.4). 50 μL of cells (1.0 × 10^6 cells 50^−1 μL^−1) were seeded onto poly-L-lysine-coated μ-Slides 18 well (flat) (Ibidi, Martinsried, Germany) and measured using CLSM (confocal laser scanning microscopy) with excitation wavelengths at 405 nm and 488 nm. […] Each experiment was carried out three times. Between 10 and 20 microscopy images were taken each time, resulting in at least 30 experimental values per concentration and incubation time. The obtained ratio values were normalized to the control value, which was set to 100. All experiments were carried out within 6 weeks after the appearance of transfectants. Mean and standard error of the mean (SEM) are shown. A one-way ANOVA test with 95% confidence intervals with the Dunnett’s multiple comparison test (GraphPad Prism 5.0) was applied for statistical analysis of significance (*p < 0.05; **p < 0.01; ***p < 0.001).

P. falciparum 3D7 [3] = conditions: chloroquine-sensitive strain; cited from earlier work
[4] = test system: human hepatocyte cell lines; parameters: method as in PMID 24501782; conditions: cited from earlier work
[5] = test system: P. falciparum NF54[hGrx1-roGFP2] glutathione redox ratio; assay: Cytosolic glutathione redox sensor hGrx1-roGFP2, fluorescence plate reader; format: cell-based, Plasmodium falciparum
Procedure: NF54^[hGrx1–roGFP2] parasites were washed and resuspended after incubation in pre-warmed Ringer’s solution to a concentration of […]. 10 µL of cells (1 × 10^6 iRBCs) were transferred to each well of a 384-well plate (black, flat bottom, Greiner Bio-One, Frickenhausen, Germany) and were measured with the plate reader Clariostar (BMG Labtech, Ortenberg, Germany) with excitation wavelengths at 405 nm and 475 nm (emission 510 nm). The gain of the 405 nm and 475 nm excitation wavelengths was adjusted to match the full dynamic range of the hGrx1–roGFP2 redox sensor. The 405/475 nm ratio was then calculated. The graphs were plotted using the GraphPad Prism 5 software (San Diego, CA, USA). A one-way ANOVA test with 95% confidence intervals with the Dunnett’s multiple comparison test (GraphPad Prism 5.0) was applied for statistical analysis of significance (*p < 0.05; **p < 0.01; ***p < 0.001).
Recently, the cytosolic glutathione redox sensor was stably integrated into NF54-attB parasites. The direct response of NF54^[hGrx1–roGFP2] to mid- and long-term exposures were determined using the time-efficient plate reader (Clariostar). […] As depicted in Fig. 7, ML304 oxidized the cytosol, leading to an increase of the 405/488 nm ratio of the probe in a concentration-dependent manner with significant differences after a 24 h incubation.

CCN1CCC[C@@H]1CNC(=O)c1ccc2c(c1)NC(=O)c1cccc(C)c1S2 [ML304]
Direct interaction with recombinantly purified hGrx1-roGFP2 probe (recombinant hGrx1-roGFP2): excluded a direct interaction
EC50 (P. falciparum 3D7 [1]): 471 ± 39.5 nM
Oxidation of the hGrx1-roGFP2 sensor ([2]; 5 µM, 24 h incubation): completely oxidize the sensor
Oxidation of the hGrx1-roGFP2 sensor ([2]; 50 µM, 4 h incubation): completely oxidize the sensor
Effect on 405/488 nm ratio of hGrx1-roGFP2 ([2]; 4 h incubation, trophozoites, 1, 50 and 100 µM (p < 0.05 at 1 µM, p < 0.001 at 50 and 100 µM)): significant effects
Effect on 405/488 nm ratio of hGrx1-roGFP2 ([2]; 24 h incubation, ring stage (p < 0.05 at 1 µM, p < 0.001 at 50 µM and 100 µM as printed)): significantly increased
Active concentration on P. falciparum 3D7 in cell culture (P. falciparum 3D7 [3]): lower than 1 µM
LD50 against human hepatocyte cell lines [4]: > 50 µM
Increase of 405/475 nm fluorescence ratio ([5]; 8.88 µM, 24 h, ring stage, p < 0.01): threefold
Effect on fluorescence ratio ([5]; 4 h incubation, trophozoite stage, 1 to 100 times EC50): concentration-dependent increase in fluorescence ratio

Reference: paper PMC6346587, “Glucose 6-phosphate dehydrogenase 6-phosphogluconolactonase: characterization of the Plasmodium vivax enzyme and inhibitor studies” (Malaria Journal, 2019)
